Consider 30 compounds from patent publication US10758534B2 (Vertex Pharmaceuticals Incorporated, priority 2014, dated 2020).

As usually defined, the EC30 is the concentration at which the effect reaches the 30% level.

T1 sequence (P13569 with tags, fused parts or gaps DEL508-508): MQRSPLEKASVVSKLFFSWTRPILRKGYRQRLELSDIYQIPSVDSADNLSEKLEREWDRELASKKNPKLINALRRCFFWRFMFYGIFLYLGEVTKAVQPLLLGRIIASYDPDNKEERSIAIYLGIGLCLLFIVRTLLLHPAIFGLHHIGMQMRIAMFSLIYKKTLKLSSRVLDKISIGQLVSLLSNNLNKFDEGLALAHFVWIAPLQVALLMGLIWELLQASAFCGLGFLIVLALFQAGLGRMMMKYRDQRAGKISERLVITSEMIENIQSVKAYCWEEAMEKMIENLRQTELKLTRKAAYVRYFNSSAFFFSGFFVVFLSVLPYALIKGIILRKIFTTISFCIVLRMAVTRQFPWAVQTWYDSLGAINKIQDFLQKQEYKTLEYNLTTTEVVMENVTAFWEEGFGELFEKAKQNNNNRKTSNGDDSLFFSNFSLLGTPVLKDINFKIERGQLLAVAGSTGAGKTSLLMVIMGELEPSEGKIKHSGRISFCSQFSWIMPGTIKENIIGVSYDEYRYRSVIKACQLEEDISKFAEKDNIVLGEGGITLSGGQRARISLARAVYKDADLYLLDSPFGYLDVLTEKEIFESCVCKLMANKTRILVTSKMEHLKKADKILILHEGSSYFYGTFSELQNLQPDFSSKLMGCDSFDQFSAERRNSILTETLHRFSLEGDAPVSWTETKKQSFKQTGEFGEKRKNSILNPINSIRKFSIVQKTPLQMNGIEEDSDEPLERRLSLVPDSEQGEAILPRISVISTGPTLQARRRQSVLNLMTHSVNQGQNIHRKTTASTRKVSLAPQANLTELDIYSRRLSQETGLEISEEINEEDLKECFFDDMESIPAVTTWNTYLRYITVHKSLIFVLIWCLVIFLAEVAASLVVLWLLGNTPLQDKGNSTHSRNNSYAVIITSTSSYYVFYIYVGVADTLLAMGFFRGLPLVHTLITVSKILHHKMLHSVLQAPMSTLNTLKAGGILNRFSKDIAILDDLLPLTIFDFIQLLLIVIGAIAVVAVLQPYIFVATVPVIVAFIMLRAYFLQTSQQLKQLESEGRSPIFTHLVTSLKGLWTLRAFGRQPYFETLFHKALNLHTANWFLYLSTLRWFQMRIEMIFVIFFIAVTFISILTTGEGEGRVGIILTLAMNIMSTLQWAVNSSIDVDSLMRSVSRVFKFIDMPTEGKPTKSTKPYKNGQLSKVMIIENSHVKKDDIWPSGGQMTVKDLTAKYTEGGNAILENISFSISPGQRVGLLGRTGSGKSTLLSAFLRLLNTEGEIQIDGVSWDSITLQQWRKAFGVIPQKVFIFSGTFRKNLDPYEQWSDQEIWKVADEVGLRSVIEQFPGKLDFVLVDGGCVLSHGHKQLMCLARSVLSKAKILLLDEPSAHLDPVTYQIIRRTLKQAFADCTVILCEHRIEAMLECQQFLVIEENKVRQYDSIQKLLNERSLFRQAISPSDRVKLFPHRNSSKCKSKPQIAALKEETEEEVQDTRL

One test has as its target T1, F508del (Homo sapiens, UniProt P13569, DEL508-508).
T1 construct: expressed in transfected cells
Nature of the test: Protocol 2: FRET membrane potential optical assay (VIPR), identification of correction compounds. The settings on record: F508del CFTR modulator activity; compounds of Table 1; read-out: EC30. It counts as cell-based. The gist of the method: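 NIH3T3 mouse fibroblasts stably expressing F508del were treated with test compound for 16 hrs at 37° C. in serum-free medium; 27° C. incubation served as positive control. F508del was activated with 10 μM forskolin plus 20 μM genistein in Cl^−-free medium, and Cl^− efflux-driven depolarization was read by DiSBAC2(3)/CC2-DMPE FRET.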
Turning to `Cc1ccc(-c2ccc(C(=O)NS(=O)(=O)c3cccnc3N)c(N3C[C@@H](C)CC3(C)C)n2)c(F)c1` [Compound 2613, N-[(2-amino-3-pyridyl)sulfonyl]-6-(2-fluoro-4-methyl-phenyl)-2-[(4S)-2,2,4-trimethylpyrrolidin-1-yl]pyridine-3-carboxamide], the EC30 was less than 3000 nM.

Take `COc1cc(-c2ccc(C(=O)NS(=O)(=O)c3cccnc3N)c(N3C[C@@H](C)CC3(C)C)n2)ccc1F` [Compound 2124, N-[(2-amino-3-pyridyl)sulfonyl]-6-(4-fluoro-3-methoxy-phenyl)-2-[(4S)-2,2,4-trimethylpyrrolidin-1-yl]pyridine-3-carboxamide]: the EC30 is less than 3000 nM. Still for that read-out and setting: next, `CC(C)Oc1cccc(-c2ccc(C(=O)NS(=O)(=O)N3CC[C@H](N)C3)c(N3C[C@@H](C)CC3(C)C)n2)c1` [Compound 2156, N-[(3S)-3-aminopyrrolidin-1-yl]sulfonyl-6-(3-isopropoxyphenyl)-2-[(4S)-2,2,4-trimethylpyrrolidin-1-yl]pyridine-3-carboxamide]: less than 3000 nM; `C[C@@H]1CN(c2nc(-c3ccc(F)cc3)ccc2C(=O)NS(=O)(=O)c2cccnc2N)C(C)(C)C1` [Compound 2435, N-[(2-amino-3-pyridyl)sulfonyl]-6-(4-fluorophenyl)-2-[(4S)-2,2,4-trimethylpyrrolidin-1-yl]pyridine-3-carboxamide]: less than 3000 nM; `CC1CN(c2ncccc2C(=O)NS(=O)(=O)c2cccc(Oc3ccc(Cl)cn3)n2)C(C)(C)C1` (stereo not drawn) [Compound 2736]: 3000 to 10000 nM. For `CC1CN(c2ncccc2C(=O)NS(=O)(=O)c2cccc(Nc3cccc(C(C)(C)C)c3)n2)C(C)(C)C1` (stereo not drawn) [Compound 2142, N—[[6-(3-tert-butylanilino)-2-pyridyl]sulfonyl]-2-(2,2,4-trimethylpyrrolidin-1-yl)pyridine-3-carboxamide], the EC30 was less than 3000 nM. In the case of `C[C@@H]1CN(c2nc(-c3ccc(C(F)F)cc3)ccc2C(=O)NS(=O)(=O)c2cccnc2N)C(C)(C)C1` [Compound 2644, N-[(2-amino-3-pyridyl)sulfonyl]-6-[4-(difluoromethyl)phenyl]-2-[(4S)-2,2,4-trimethylpyrrolidin-1-yl]pyridine-3-carboxamide], the EC30 was less than 3000 nM. For the compound `CC1CN(c2ncccc2C(=O)NS(=O)(=O)c2cccc(OCCc3ccccc3F)n2)C(C)(C)C1` (stereo not drawn) [Compound 2625, N—[[6-[2-(2-fluorophenyl)ethoxy]-2-pyridyl]sulfonyl]-2-(2,2,4-trimethylpyrrolidin-1-yl)pyridine-3-carboxamide], the EC30 was less than 3000 nM.

For `CC1CN(c2ncccc2C(=O)NS(=O)(=O)c2cccc(OCc3ccccc3Cl)n2)C(C)(C)C1` (stereo not drawn) [Compound 2273, N—[[6-[(2-chlorophenyl)methoxy]-2-pyridyl]sulfonyl]-2-(2,2,4-trimethylpyrrolidin-1-yl)pyridine-3-carboxamide], the EC30 was less than 3000 nM. On the same count and under the same terms, then `CC1CN(c2ncccc2C(=O)NS(=O)(=O)c2cccc(Nc3ccccn3)n2)C(C)(C)C1` (stereo not drawn) [Compound 2068, N—[[6-(2-pyridylamino)-2-pyridyl]sulfonyl]-2-(2,2,4-trimethylpyrrolidin-1-yl)pyridine-3-carboxamide], with less than 3000 nM; and `CC1CN(c2ncccc2C(=O)NS(=O)(=O)c2cccc(N[C@H]3CC[C@H](NC(=O)OC(C)(C)C)CC3)n2)C(C)(C)C1` (stereo partly drawn) [Compound 2439, tert-butyl N—[4-[[6-[[2-(2,2,4-trimethylpyrrolidin-1-yl)pyridine-3-carbonyl]sulfamoyl]-2-pyridyl]amino]cyclohexyl]carbamate], with less than 3000 nM. Same read-out and setting: next, `Cc1ccc(F)c(-c2ccc(C(=O)NS(=O)(=O)c3cccnc3N)c(N3C[C@@H](C)CC3(C)C)n2)c1` [Compound 2205, N-[(2-amino-3-pyridyl)sulfonyl]-6-(2-fluoro-5-methyl-phenyl)-2-[(4S)-2,2,4-trimethylpyrrolidin-1-yl]pyridine-3-carboxamide]: less than 3000 nM; `CC1CN(c2ncccc2C(=O)NS(=O)(=O)c2cccc(N(C)C(C)C)n2)C(C)(C)C1` (single isomer, unassigned) [Compound 2724]: less than 3000 nM.

Staying with this test, now noted: Table 3; compounds of Table 1 as modulators of CFTR activity; protocol not stated.
On to `Cc1cc(C)c(Oc2nc(C(C)(C)C)ccc2C(=O)NS(=O)(=O)c2cccc(O)c2)c(C)c1` [Compound 47, 6-tert-butyl-N-(3-hydroxyphenyl)sulfonyl-2-(2,4,6-trimethylphenoxy)pyridine-3-carboxamide], for which the EC30 result is on record as “+++ (“+++” means <3 uM)”. The same measure, in the same setting: then `COc1cc(-c2ccc(C(=O)NS(=O)(=O)c3cccc(N)n3)c(Oc3c(C)cc(C)cc3C)n2)ccc1C` [Compound 375, N-[(6-amino-2-pyridyl)sulfonyl]-6-(3-methoxy-4-methyl-phenyl)-2-(2,4,6-trimethylphenoxy)pyridine-3-carboxamide], with “+++ (“+++” means <3 uM)”. Same read-out and setting: then `CC(C)COc1cc(F)cc(-c2ccc(C(=O)NS(=O)(=O)c3ccn[nH]3)c(N3CCC(C(F)(F)F)CC3)n2)c1` [Compound 426, 6-(3-fluoro-5-isobutoxy-phenyl)-N-(1H-pyrazol-5-ylsulfonyl)-2-[14-(trifluoromethyl)-1-piperidyl]pyridine-3-carboxamide], with “+++ (“+++” means <3 uM)”; and `Cc1cc(C)c(Oc2nc(-c3cc(OCC(C)C)ccc3F)ccc2C(=O)NS(=O)(=O)c2cccc(N)n2)c(C)c1` [Compound 351, N-[(6-amino-2-pyridyl)sulfonyl]-6-(2-fluoro-5-isobutoxy-phenyl)-2-(2,4,6-trimethylphenoxy)pyridine-3-carboxamide], with “+++ (“+++” means <3 uM)”; and `C[C@H](COCc1ccccc1)Oc1ccc(-c2ccc(C(=O)NS(=O)(=O)c3cccc(N)n3)c(N3[C@H](C)CC[C@@H]3C)n2)cn1` [Compound 576, N-[(6-amino-2-pyridyl)sulfonyl]-6-[6-[(1R)-2-benzyloxy-1-methyl-ethoxy]-3-pyridyl]-2-[(2S,5R)-2,5-dimethylpyrrolidin-1-yl]pyridine-3-carboxamide], with “+++ (“+++” means <3 uM)”. Still for that read-out and setting: then `C[C@@H]1CC[C@H](C)N1c1nc(-c2ccc(OCC3CC3)nc2)ccc1C(=O)NS(=O)(=O)c1cccc(N)n1` [Compound 789, N-[(6-amino-2-pyridyl)sulfonyl]-6-[6-(cyclopropylmethoxy)-3-pyridyl]-2-[(2S,5R)-2,5-dimethylpyrrolidin-1-yl]pyridine-3-carboxamide], with “+++ (“+++” means <3 uM)”; and `Cc1cccc(C)c1Cn1nc(C(C)(C)C)cc1C(=O)NS(=O)(=O)c1cccc2c1OCC2` [Compound 211, 5-tert-butyl-N-(2,3-dihydrobenzofuran-7-ylsulfonyl)-2-[(2,6-dimethylphenyl)methyl]pyrazole-3-carboxamide], with “++ (“++” means between 3 uM and 10 uM)”; and `Cc1cc(C)c(Cn2c(C(=O)NS(=O)(=O)c3cccc(N)c3)c(C)c3ccccc32)c(C)c1` [Compound 118, N-(3-aminophenyl)sulfonyl-3-methyl-1-[(2,4,6-trimethylphenyl)methyl]indole-2-carboxamide], with “++ (“++” means between 3 uM and 10 uM)”. As to `Cc1cccc(-c2ccc(C(=O)NS(=O)(=O)c3cccc(N)n3)c(Oc3c(C)cc(C)cc3C)n2)c1` [Compound 672, N-[(6-amino-2-pyridyl)sulfonyl]-6-(m-tolyl)-2-(2,4,6-trimethylphenoxy)pyridine-3-carboxamide], the EC30 result is given as “+++ (“+++” means <3 uM)”. In the case of `Cc1cc(C)c(Cn2c(C(=O)NS(=O)(=O)c3ccccc3)cc3ccccc32)c(C)c1` [Compound 264, N-(benzenesulfonyl)-1-[(2,4,6-trimethylphenyl)methyl]indole-2-carboxamide], the EC30 entry was “+++ (“+++” means <3 uM)”. The same measure, in the same setting: next, `Cc1cc(C)c(Oc2nc(-c3ccc(OCC(C)C)cc3)ccc2C(=O)NS(=O)(=O)c2cccc(N)n2)c(C)c1` [Compound 320, N-[(6-amino-2-pyridyl)sulfonyl]-6-(4-isobutoxyphenyl)-2-(2,4,6-trimethylphenoxy)pyridine-3-carboxamide]: “+++ (“+++” means <3 uM)”; `COc1cccnc1S(=O)(=O)NC(=O)c1cc2ccccc2n1Cc1c(C)cc(C)cc1C` [Compound 258, N-[(3-methoxy-2-pyridyl)sulfonyl]-1-[(2,4,6-trimethylphenyl)methyl]indole-2-carboxamide]: “++ (“++” means between 3 uM and 10 uM)”. Same read-out and setting: next, `Cc1cc(C)c(Oc2nc(C3CCC(C)(C)CC3)ccc2C(=O)NS(=O)(=O)c2cccc(N)n2)c(C)c1` [Compound 538, N-[(6-amino-2-pyridyl)sulfonyl]-6-(4,4-dimethylcyclohexyl)-2-(2,4,6-trimethylphenoxy)pyridine-3-carboxamide]: “+++ (“+++” means <3 uM)”; `CC(C)Oc1ccc(-c2ccc(C(=O)NS(=O)(=O)c3cccc(N)n3)c(N3CCC[C@@H](C)C3)n2)cn1` [Compound 757, N-[(6-amino-2-pyridyl)sulfonyl]-6-(6-isopropoxy-3-pyridyl)-2-[(3R)-3-methyl-1-piperidyl]pyridine-3-carboxamide]: “+++ (“+++” means <3 uM)”. Still for that read-out and setting: then `CC(C)COc1ccc(-c2ccc(C(=O)NS(=O)(=O)c3cccc(N)n3)c(N3CC(C)CC3(C)C)n2)cc1` (stereo not drawn) [Compound 440, N-[(6-amino-2-pyridyl)sulfonyl]-6-(4-isobutoxyphenyl)-2-(2,2,4-trimethylpyrrolidin-1-yl)pyridine-3-carboxamide], with “+++ (“+++” means <3 uM)”; and `CC(C)(C)c1ccc(C(=O)NS(=O)(=O)c2ccc(N)cc2)c(N2CCCCC2)n1` [Compound 753, N-(4-aminophenyl)sulfonyl-6-tert-butyl-2-(1-piperidyl)pyridine-3-carboxamide], with “++ (“++” means between 3 uM and 10 uM)”. Consider `Cc1cc(C)c(Oc2nc(-c3cc(F)cc(OCC(C)C)c3)ccc2C(=O)NS(=O)(=O)c2cccc(C#N)n2)c(C)c1` [Compound 771, N-[(6-cyano-2-pyridyl)sulfonyl]-6-(3-fluoro-5-isobutoxy-phenyl)-2-(2,4,6-trimethylphenoxy)pyridine-3-carboxamide], for which the EC30 result was “+++ (“+++” means <3 uM)”.
